Drawing on patent publication US10195185B2, “3-(1H-imidazo[4,5-C]pyridin-2-yl)-1H-pyrazolo[4,3-B]pyridines and therapeutic uses thereof” (Samumed, LLC, priority 2015, dated 2019), this text covers Emax, EC50 and inhibition for 12 molecules.

Molecules are shown by their SMILES. pEC50: −log10 of the molar value.

Assay type in all cases: cell-based
In test [1] the test system is primary human mesenchymal stem cells (hMSCs). Kind of test: Induction of chondrogenesis in hMSCs (nodule area, Rhodamine B / Nile Red). As to conditions: TGF-β3 as positive control; for Emax: read-out: Max. Activity as % TGF-β3 activity; for EC50: concentration required to induce 50% levels of chondrogenesis, read-out: Conc (nM) of 50% TGF-β3 activity. How it is done: Representative compounds were screened using primary human mesenchymal stem cells (hMSCs) to determine their ability to induce chondrogenesis (process by which cartilage is developed).
Primary human mesenchymal stem cells (hMSCs) were purchased from Lonza (Walkersville, Md.) and expanded in Mesenchymal Stem Cell Growth Media (Lonza). Cells between passage 3 and 6 were used for the experiments.
Each compound was dissolved in DMSO as a 10 mM stock and used to prepare compound source plates. For the 96 well assay, serial dilution (1:3, 6-point dose-response curves from 2700 nM to 10 nM) and compound transfer was performed using the ECHO 550 (Labcyte, Sunnyvale, Calif.) into 96-well clear bottom assay plates (Greiner Bio-One) with appropriate DMSO backfill for a final DMSO concentration of 0.03%. hMSCs were plated at 20,000 cells/well in 250 μL/well Incomplete Chondrogenic Induction Medium (Lonza; DMEM, dexamethasone, ascorbate, insulin-transferrin-selenium [ITS supplement], gentamycin-amphotericin [GA-1000], sodium pyruvate, proline and L-glutamine). TGF-β3 (10 ng/mL) was used as a positive control for differentiation while negative control wells were treated with 75 nL DMSO for normalization and calculating EC50 values. For the 384 well assay, serial dilution (1:3, 8-point dose-response curves from 5000 nM to 2.2 nM) and compound transfer was performed using the ECHO 550 (Labcyte, Sunnyvale, Calif.) into 384-well clear bottom assay plates (Greiner Bio-One) with appropriate DMSO backfill for a final DMSO concentration of 0.03%. hMSCs were plated at 8,000 cells/well in 80 μL/well Incomplete Chondrogenic Induction Medium (Lonza; DMEM, dexamethasone, ascorbate, insulin-transferrin-selenium [ITS supplement], gentamycin-amphotericin [GA-1000], sodium pyruvate, proline and L-glutamine). TGF-β3 (10 ng/mL) was used as a positive control for differentiation while negative control wells were treated with 25 nL DMSO for normalization and calculating EC50 values. Cells were incubated at 37° C. and 5% CO2 for 6 days. To image chondrogenic nodules, the cells were fixed using 4% formaldehyde (Electron Microscopy Sciences), and stained with 2 μg/mL Rhodamine B (Sigma-Aldrich) and 20 μM Nile Red (Sigma-Aldrich) [Johnson K., et. al, A Stem Cell-Based Approach to Cartilage Repair, Science, (2012), 336(6082), 717-721]. The nodules imaged (25 images per well for 96 well plates and 9 images per well for 384 well plates at 10× magnification) by excitation at 531 nm and emission at 625 nm and quantified using the CellInsight CX5 (Thermo Scientific). Area of nodules in each well was normalized to the average of 3 DMSO treated wells on the same plate using Excel (Microsoft Inc.). The normalized averages (fold change over DMSO) of 2 or 3 replicate wells for each compound concentration were calculated. Due to solubility limitations of some of the compounds, curve fitting was incomplete leading to inaccurate EC50 determinations.
Using TGF-β3 as a positive control, the concentration of representative compounds required to induce 50% levels of chondrogenesis is reported. In addition, the maximum activity of each compound and the respective dose that each compound reached maximum chondrogenesis activity is reported.

In test [2] the test system is Wnt activity (Wnt-responsive human Sp5 promoter, TCF/LEF binding sites) in SW480 colon carcinoma cells. Nature of the test: Wnt activity screening assay: Sp5-Luc luciferase reporter gene in SW480 cells. As to conditions: for pEC50: 10-point dose-response from 10 μM, incubated overnight; for inhibition at 10 µM: given for EC50 of >10 μM, read-out: percent inhibition at 10 μM. An outline of the steps:
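SW480 cells stably transduced with an Sp5 promoter (eight TCF/LEF sites)–firefly luciferase lentiviral reporter, plated at 4,000 cells/well in 1% FBS medium with compounds (10-point 1:3 series from 10 μM, 0.1% DMSO) overnight at 37 °C. BrightGlo luminescence normalised to DMSO; EC50 by four-parameter fit, else % inhibition at 10 μM.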
(In general: In a reporter assay the amount or activity of a reporter protein is the signal.)

For the next test, the system named is SW480 colon cancer cells. Kind of test: Cell viability assay (CellTiter-Blue), four days. The settings on record: Homo sapiens, 96 h; for pEC50: CellTiter-Blue cell viability; for inhibition at 10 µM: read-out: percent inhibition at 10 μM (given for EC50 of >10 μM). An outline of the steps: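 SW480 cells (~2×10^3 per well) were exposed to compound for four days at 37 °C/5% CO2, using 8-point 1:3 dilutions from 10 μM to 0.0045 μM in duplicate. Viability was read by resazurin reduction (CellTiter-Blue, ~3 h, Ex 560/Em 590 nm). EC50 came from non-linear regression; above 10 μM, percent inhibition at 10 μM is given.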
(Resazurin is reduced to fluorescent resorufin, in cell work by metabolically active cells.)

For `CCNCc1cncc(-c2ccc3[nH]nc(-c4nc5c(-c6ccoc6)nccc5[nH]4)c3n2)c1` [Compound 314, N-((5-(3-(4-(Furan-3-yl)-1H-imidazo[4,5-c]pyridin-2-yl)-1H-pyrazolo[4,3-b]pyridin-5-yl)pyridin-3-yl)methyl)ethanamine], the Emax in test [1] came out at 33%. In addition, the pEC50 is 5.46 in test [2] and 6.16 in the test on SW480 colon cancer cells.
As to `CC(C)Nc1cncc(-c2ccc3[nH]nc(-c4nc5c(-c6ccoc6)nccc5[nH]4)c3n2)c1` [Compound 320, 5-(3-(4-(Furan-3-yl)-1H-imidazo[4,5-c]pyridin-2-yl)-1H-pyrazolo[4,3-b]pyridin-5-yl)-N-isopropylpyridin-3-amine], the Emax in test [1] is 76%. Besides, the EC50 in test [1] was found to be 30 nM. Also, the results for the pEC50 (in test [2]; with SW480 colon cancer cells) were 6.45 and 6.36, respectively.
As for `CCCCC(=O)Nc1cncc(-c2ccc3[nH]nc(-c4nc5c(-c6ccoc6)nccc5[nH]4)c3n2)c1` [Compound 327, N-(5-(3-(4-(Furan-3-yl)-1H-imidazo[4,5-c]pyridin-2-yl)-1H-pyrazolo[4,3-b]pyridin-5-yl)pyridin-3-yl)pentanamide], in test [1], the Emax came out at 91% and the EC50 was found to be 10 nM. For the same molecule, in test [2], the pEC50 was 5.69. For the same molecule, in the test on SW480 colon cancer cells, the inhibition at 10 µM came out at 10.1% and the pEC50 is less than 5.00.
As for `CCC(=O)Nc1cncc(-c2ccc3[nH]nc(-c4nc5c(-c6cccs6)nccc5[nH]4)c3n2)c1` [Compound 337, N-(5-(3-(4-(Thiophen-2-yl)-1H-imidazo[4,5-c]pyridin-2-yl)-1H-pyrazolo [4,3-b]pyridin-5-yl)pyridin-3-yl)propionamide], in test [1], the Emax was determined as 179% and the EC50 was found to be 7 nM. For the same molecule, in test [2], the pEC50 was less than 5.00 and the inhibition at 10 µM is 31.8%. In the test on SW480 colon cancer cells, the inhibition at 10 µM was found to be 39.4% and the pEC50 is less than 5.00.
As for `CN(C)CC(=O)Nc1cncc(-c2ccc3[nH]nc(-c4nc5c(-c6cccc(F)c6)nccc5[nH]4)c3n2)c1` [Compound 969, 2-(Dimethylamino)-N-(5-(3-(4-(3-fluorophenyl)-1H-imidazo[4,5-c]pyridin-2-yl)-1H-pyrazolo[4,3-b]pyridin-5-yl)pyridin-3-yl)acetamide], in test [1], the Emax is 63% and the EC50 came to 7 nM. This molecule also showed a pEC50 in test [2] of 5.51. This molecule showed a pEC50 in the test with SW480 colon cancer cells of 5.79.
Consider `COc1cccc(-c2nccc3[nH]c(-c4n[nH]c5ccc(-c6cccnc6)nc45)nc23)c1` [Compound 994, 3-(4-(3-Methoxyphenyl)-1H-imidazo[4,5-c]pyridin-2-yl)-5-(pyridin-3-yl)-1H-pyrazolo[4,3-b]pyridine], for which, in test [1], the Emax was determined as 51% and the EC50 stood at 30 nM. For the same molecule, the pEC50 in test [2] was 6.38. Further, in the test on SW480 colon cancer cells, the inhibition at 10 µM came out at 0% and the pEC50 is less than 5.00.
In the case of `COc1cccc(-c2nccc3[nH]c(-c4n[nH]c5ccc(-c6cncc(NC(=O)Cc7ccccc7)c6)nc45)nc23)c1` [Compound 1000, N-(5-(3-(4-(3-methoxyphenyl)-1H-imidazo[4,5-c]pyridin-2-yl)-1H-pyrazolo [4,3-b]pyridin-5-yl)pyridin-3-yl)-2-phenylacetamide], the Emax in test [1] stood at 41%. Besides, in test [2], the pEC50 is less than 5.00 and the inhibition at 10 µM was determined as 31.1%. Also, in the test on SW480 colon cancer cells, the inhibition at 10 µM was determined as 25.5% and the pEC50 was less than 5.00.
As to `CC(C)CC(=O)Nc1cncc(-c2ccc3[nH]nc(-c4nc5c(-c6ccc(Cl)s6)nccc5[nH]4)c3n2)c1` [Compound 1037, N-(5-(3-(4-(5-Chlorothiophen-2-yl)-1H-imidazo[4,5-c]pyridin-2-yl)-1H-pyrazolo [4,3-b]pyridin-5-yl)pyridin-3-yl)-3-methylbutanamide], in test [1], the Emax is 104% and the EC50 worked out at 10 nM. Further, in test [2], the pEC50 is 6.14. Also, the pEC50 in the test with SW480 colon cancer cells is 5.94.
On the same counts, the results for `CC(C)(C)C(=O)Nc1cncc(-c2ccc3[nH]nc(-c4nc5c(-c6ccc(Cl)s6)nccc5[nH]4)c3n2)c1` [Compound 1043, N-(5-(3-(4-(5-Chlorothiophen-2-yl)-1H-imidazo[4,5-c]pyridin-2-yl)-1H-pyrazolo[4,3-b]pyridin-5-yl)pyridin-3-yl)pivalamide] are 67%, 10 nM, 5.97 and 5.48.
On the same counts, the results for `Clc1ccc(-c2nccc3[nH]c(-c4n[nH]c5ccc(-c6cncc(CN7CCCC7)c6)nc45)nc23)s1` [Compound 1049, 3-(4-(5-Chlorothiophen-2-yl)-1H-imidazo[4,5-c]pyridin-2-yl)-5-(5-(pyrrolidin-1-ylmethyl)pyridin-3-yl)-1H-pyrazolo [4,3-b]pyridine] are 59%, 10 nM, 5.80 and 6.03.
On the same counts, the results for `O=C(Nc1cncc(-c2ccc3[nH]nc(-c4nc5c(-c6ccc(Cl)s6)nccc5[nH]4)c3n2)c1)C1CCC1` [Compound 1056, N-(5-(3-(4-(5-Chlorothiophen-2-yl)-1H-imidazo[4,5-c]pyridin-2-yl)-1H-pyrazolo[4,3-b]pyridin-5-yl)pyridin-3-yl)cyclobutanecarboxamide] are 60%, 30 nM, 6.05 and 5.67.
As to `Cc1ncc(-c2ccc3[nH]nc(-c4nc5c(-c6cccc(F)c6)nccc5[nH]4)c3n2)s1` [Compound 1126, 5-(3-(4-(3-Fluorophenyl)-1H-imidazo[4,5-c]pyridin-2-yl)-1H-pyrazolo[4,3-b]pyridin-5-yl)-2-methylthiazole], the Emax in test [1] was 43%. This molecule showed a pEC50 in test [2] of 6.63. In the test on SW480 colon cancer cells, the inhibition at 10 µM is 26.6% and the pEC50 was less than 5.00.

As usually defined, the pEC50 is the EC50 on a negative log10 scale, so that one unit is a factor of ten. Low values mean a large EC50, high ones a small EC50. In general, inhibition refers to the change of the read-out against control, counted positive when it falls.
